Experimental data reported in paper PMC12304293, “Combatting virulent gut bacteria by inhibiting the biosynthesis of a two-component lanthipeptide toxin” (Nature Communications, 2025).
Where two headings read alike, the source gives them in different places. Non-standard residues stand in square brackets, D forms with d. Residues, ends and D or L forms follow the SMILES beside them. *: point of attachment. boroGlu = O=C(O)CC[C@H](N*)B(O)O; Abu = CC[C@H](N)C(=O)O

Tests used:
[1] = test system: HeLa cells; format: cell-based
Experimental: Cell culturing and maintenance was performed in Dulbecco’s Modified Eagle Medium (DMEM, Gibco) supplemented with 10% heat inactivated fetal bovine serum (FBS, Gibco). Cells were routinely checked for mycoplasm using mycoplasm specific primers. HeLa cells (ATCC) were seeded in 96 well plates (Nunc) using a seeding density of 5000 cells/well and allowed to adhere for 16 h at 37 °C, 5% CO2. […] Post-treatment, plates were incubated for 72 h at 37 °C, 5% CO2. Subsequently, the growth medium was removed, and the cells were washed once with pre-warmed phosphate buffered saline (PBS; pH = 7.2). Next, 50 µL of DMEM-FBS media containing 1 mg/mL of 3-(4,5-dimethylthiazol-2-yl)-2,5-diphenyltetrazolium bromide (MTT) was added to the cells and the cells were incubated in the dark at 37 °C, 5% CO2 for 4 h. During this time, live cells reduced yellow tetrazolium salts to purple formazan crystals through NAD(P)H-dependent oxidoreductase activity. After 4 h, the medium was removed carefully and the insoluble formazan crystals were solubilized by incubating with 100 µL of dimethyl sulfoxide (DMSO) in the dark for 1 h with intermittent swirling. Finally, absorbance was recorded at 575 nm (Supplementary Fig. 18). The percentage of cells that survived over the course of the assay was calculated using Eq. 1.1 %survival=100%−Absorbanceoftreatedwell−AvgAbsorbanceofnegativecontrolwells/AvgAbsorbanceofpositivecontrol−AvgAbsorbanceofnegativecontrol*100% […]
Supplementary Figure 18.Cytotoxicity assay of boronic acid inhibitors 2 , 3, 5- 9 against HeLa […]
µM or less as determined by an MTT-based assay. Puromycin was used as positive control, while deionized sterile w ater w as used as a n egative con trol. Source data are prov ided as a Source Dat a […]

[2] = molecular target: T1, His6-CylA-27-412 (Enterococcus faecalis, UniProt A0A2P6AWB8); assay: Analysis of CylA inhibition by LCMS (cleavage of mCylLL and mCylLS); format: biochemical; details: 1 µM inhibitor; enzyme 4 nM; substrate 10 µM; 30 min, room temperature
T1 sequence (A0A2P6AWB8 27-412): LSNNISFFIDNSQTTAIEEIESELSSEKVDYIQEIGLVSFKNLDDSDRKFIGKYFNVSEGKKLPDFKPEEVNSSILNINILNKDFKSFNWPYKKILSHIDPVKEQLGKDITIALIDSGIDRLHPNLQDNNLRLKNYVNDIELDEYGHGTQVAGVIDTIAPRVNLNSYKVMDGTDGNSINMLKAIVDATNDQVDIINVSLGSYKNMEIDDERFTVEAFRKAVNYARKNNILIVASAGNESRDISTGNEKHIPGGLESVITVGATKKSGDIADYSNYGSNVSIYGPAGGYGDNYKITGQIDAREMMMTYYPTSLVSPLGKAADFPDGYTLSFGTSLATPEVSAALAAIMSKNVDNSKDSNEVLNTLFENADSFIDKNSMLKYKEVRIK
Experimental: We expressed CylA in Escherichia coli with an N-terminal His6-tag and without the secretion signal that is present in WT CylA. […] (4 nM) gave partial conversion to the mature core peptide after 30 min at room temperature.
A Peak highlighted in green is the LP and peak highlighted in orange is CylLL”. B Peak highlighted in blue is the LP and peak highlighted in violet is CylLS”. Longer incubation times result in near-complete cleavage of the substrates. Source data are provided as a Source Data file.
His6-CylA-27-412 was added to PBS (pH = 7.4) to achieve a total enzyme concentration of 4 nM then 1 was added to a concentration 1 μM. […] Reactions were allowed to stand for 30 min before quenching through adjustment to 1% formic acid. Reactions were analyzed directly by LCMS using a Jupiter 5 µm C4 300 Å, 50 × 2 mm LC column. The following gradient was used: 98% H2O + 0.1% FA (solvent A)/2% MeCN + 0.1% FA (solvent B) for 2 min then 98:2 to 2:98 solvent A:solvent B over 10 min. Extracted ion chromatograms (EIC) for each species were merged into a single trace. […] CylA was also previously reported to prefer the modified peptides over the linear peptides.

[3] = molecular target: T1, His6-CylA-27-412; assay: Co-operative pore formation assay (pyranine liposomes) measuring CylA-catalyzed cytolysin maturation; format: biochemical
Source text: Cytolysin causes hemolysis and lyses a variety of eukaryotic cells[36],[37]. Additionally, CylA aggregates and is thought to associate primarily with the membrane of the producing cell[52],[53]. To mimic the maturation of cytolysin in vitro, an enzyme assay was designed that linked toxin production to the lysis of fluorescently labeled liposomes. […] In this way, pyranine fluorescence was correlated to toxin activation allowing for the determination of EC50 values (Fig. 4B, C).
Fig. 4 In vitro pore formation assay for determining inhibitor effectiveness. A A schematic of the assay showing how pore formation is used as an indicator of toxin maturation. […] Pore formation dissipates a pH gradient between the interior of the liposome and the surrounding buffer increasing pyranine fluorescence. […] The data points from two replicates are shown (n = 2). Source data are provided as a Source Data file.
Pyranine encapsulated liposomes were prepared as described elsewhere. […] To a well in a black 96-well plate (200 µL) was added 90 µL high pH buffer (5 mM MES, 5 mM Tricine, 5 mM NaCl, pH 7.4) containing CylA (4 nM final concentration). After adding inhibitor, the mixture was incubated at room temperature for 10 min then freshly prepared (no more than 2 days old) pyranine encapsulated DOPC liposomes were added such that the total DOPC concentration was 80 µM. […] The resulting curves were max-min normalized yielding the fraction of permeabilized liposomes. […] This experiment was performed in duplicate or triplicate for each inhibitor at each concentration.
Supplementary Figure 3. Measuring CylA-cat alyzed cytolysin maturation using a pyranine pore formation assay. Plots on the left side show the normalized pyranine emission intensity monitored […]
was added 30 min later. Each trace w as collected using a differ ent total co ncentration of inhibitor as indicated in the l egend. Traces are from a single representative tri al. On the right side, the fraction of liposomes permeabilized after 30 min was plotted as a function of total inhibitor concentration. The data were fit to a dose-response function using Origin 7 and the fit curve is depicted by the red line. Errors bars represent the standard of deviation bet ween two replicates (n = 2). Source d ata are pro vided as a Source Data file. […]

For `COc1ccc(C[C@H](N)C(=O)N[C@H]2[C@@H](O)[C@H](n3cnc4c(N(C)C)ncnc43)O[C@@H]2CO)cc1` [puromycin], the “% survival” value ([1]; additive concentration 1.6 (unit not given)) was 5.522%, the “% survival” value ([1]; additive concentration 3.1 (unit not given)) was 4.2% and the “% survival” value ([1]; additive concentration 6.3 (unit not given)) was 4.093%. The “% survival” value ([1]; additive concentration 13 (unit not given)) was 3.889%, the “% survival” value ([1]; additive concentration 25 (unit not given)) was 3.867% and the “% survival” value ([1]; additive concentration 50 (unit not given)) was 3.889%. The “% survival” value ([1]; additive concentration 100 (unit not given)) was 3.867%.
With `CC(=O)NCC(=O)N[C@@H](CC(=O)O)C(=O)N[C@H](C(=O)N[C@@H](CCC(N)=O)C(=O)N[C@@H](C)C(=O)N[C@@H](CCC(=O)O)B(O)O)C(C)C` [Compound 1] (Ac-GDVQA-boroGlu) the “His6-CylA-27-412-catalyzed cleavage of mCylLS and mCylLL” value [2] was “completely blocked”.
In the case of `CC(=O)N[C@@H](CO)C(=O)N[C@@H](CC(=O)O)C(=O)N[C@H](C(=O)N[C@@H](CCC(N)=O)C(=O)N[C@@H](C)C(=O)N[C@@H](CCC(=O)O)B(O)O)C(C)C` [Compound 8] (Ac-SDVQA-boroGlu), the EC50 [3] is reported as 40 ± 3 nM.
`CC[C@H](NC(=O)[C@H](CCC(N)=O)NC(=O)[C@@H](NC(=O)[C@H](CC(=O)O)NC(=O)CNC(C)=O)C(C)C)C(=O)N[C@@H](CCC(=O)O)B(O)O` [Compound 6] (Ac-GDVQ[Abu]-boroGlu) was tested, and the EC50 [3] was 70 ± 11 nM and the “increase in EC50 relative to 1” value ([3]; pore formation assay) was ~ 2 fold.
